According to the NIST ThermoML archive (doi:10.1016/j.tca.2009.09.001):
± gives the expanded uncertainty stated by the source.

Columns and labels:
[1] = Crystal; DTA
[2] = Molar enthalpy of transition or fusion; conditions: Crystal; DSC

For `O[C@H]1CCCC[C@@H]1O` [1,2-cyclohexanediol, (1S,2S)-], the Normal melting temperature [1] was 104 ± 1 °C and the “Molar enthalpy of transition or fusion” value [2] was 15 ± 0.5 kJ/mol.

With `O=C(O)[C@H](O)[C@@H](O)C(=O)O` [(2R,3R)-2,3-dihydroxybutanedioic acid] the Normal melting temperature [1] was 171 ± 1 °C and the “Molar enthalpy of transition or fusion” value [2] was 22.4 ± 0.7 kJ/mol.

With `O[C@@H]1CCCC[C@H]1O` [(1R,2R)-1,2-cyclohexanediol] the Normal melting temperature [1] was 108 ± 1 °C and the “Molar enthalpy of transition or fusion” value [2] was 18 ± 0.6 kJ/mol.

For `O[C@@H]1CCCC[C@H]1O` (relative stereo) [trans-1,2-cyclohexanediol], the Normal melting temperature [1] was 99 ± 1 °C and the “Molar enthalpy of transition or fusion” value [2] was 34.4 ± 1 kJ/mol.
